The source of these data is US20090253706A1, “Methods and Compositions for the Treatment of Rheumatoid Arthritis and Other Inflammatory Diseases” (priority 2008, published 2009).

What all share (format): in vivo
In one assay the test system is K/BxN mice. Description: Arthritis prevention in K/BxN mice, treatment from weaning, rear ankle thickness. An excerpt: K/BxN TCR transgenic mice express a TCR reactive to a self-peptide derived from the glucose-6-phosphate isomerase (GPI), presented by the MHC class II molecule A^g7 (Korganow et al. (1999) Immunity, 10:451-461; Kouskoff et al. (1996) Cell, 87:811-822; Matsumoto et al. (1999) Science, 286:1732-1735). K/BxN mice spontaneously develop a very aggressive form of arthritis at 3 to 4 weeks of age. […] The arthritis experienced by K/BxN mice is joint specific and allows for the scoring of the arthritis by caliper measurement of ankle thickness (Korganow et al. (1999) Immunity, 10:451-461; Ji et al. (2001) J. Exp. Med., 194:321-330).
Starting at weaning (21 days of age) K/BxN mice were administered 400 mg/kg of 1-methyl-D-tryptophan, 400 mg/kg of 1-methyl-L-tryptophan, or carrier alone b.i.d. (twice daily) by p.o. (oral) gavage.
Mice were given 400 mg/kg/dose (100 μl total volume) of D/L-1MT or D-1MT diluted in METHOCEL™/Tween® (0.5% Tween 80, 0.5% methylcellulose (v/v in water) twice daily by oral gavage (p.o.) using a curved feeding needle as described (Muller et al. (2005) Nat. Med., 11:312-319). 1MT was administered on a b.i.d. schedule, once in the morning and once in the evening. Methotrexate (MTX) was diluted in 0.5% carboxymethyl cellulose and administered by oral gavage at a range of doses 1-25 mg/kg/dose (0.1 cc/20 g mouse) using a curved feeding needle. The mice were given one dose per week as described (Asanuma et al. (2002) Eur. J. Pharmacol., 435:253-258). Control mice were given an equal volume of carrier alone (METHOCEL™/Tween®).
For the arthritis prevention experiments, MTX and/or 1MT treatment was started on the day of weaning (age 21 days). For the treatment of established arthritis, MTX and/or 1MT was administered after the mice had measurable arthritis.
The two rear ankles of MTX, 1MT, MTX+1 MT, or carrier-treated K/BxN mice were measured starting at weaning (3 wk of age) as described (Mandik-Nayak et al. (2002) Proc. Natl. Acad. Sci., 99:14368-14373). Measurement of ankle thickness was made above the footpad axially across the ankle joint using a Fowler Metric Pocket Thickness Gauge.

Assay [1] has as its system anti-glucose-6-phosphate isomerase (GPI) Ig. Kind of assay: Serum anti-GPI Ig titer in treated K/BxN mice. The note with it: FIG. 2A; IgM and IgG isotypes, vs carrier alone. The source says: (§1) FIG. 2A is a graph of the titer of serum anti-glucose-6-phosphate isomerase (GPI) IgM and IgG isotypes from K/BxN mice treated with 1-methyl-tryptophan or carrier alone. FIG. 2B is a graph of the number of anti-GPI secreting cells per 10^5 cells present in the spleen, draining lymph nodes (dLN), and non-draining lymph nodes (non-dLN) of K/BxN mice treated with 1-methyl-tryptophan or carrier alone.
(§2) K/BxN mice produce arthritogenic Abs directed against GPI, which develop at high titers because of the preferential help that B cells expressing GPI-specific immunoglobulins receive from GPI-reactive T cells displaying the transgene-encoded TCR.

Assay [2] has as its system anti-GPI antibody secreting cells. Description: Anti-GPI antibody secreting cells in spleen and lymph nodes of treated K/BxN mice. The following applies: FIG. 2B; spleen, draining lymph nodes (dLN), non-draining lymph nodes (non-dLN), vs carrier alone.
From the text: as §1, §2

Where [3] appears, read: Example 1, FIG. 1, 400 mg/kg b.i.d. p.o. from 21 days of age, vs carrier alone.
Where [4] appears, read: Example 2, FIG. 3, 400 mg/kg p.o. b.i.d. from 21 days, n=5.
The mark [5] stands for this setting: FIG. 4, MTX 1, 10 or 25 mg/kg weekly p.o. from 3 weeks of age, increasing amounts.

For `Cn1cc(C[C@H](N)C(=O)O)c2ccccc21` [1-methyl-L-tryptophan], in the assay with K/BxN mice (setting [3]), the “degree of arthritis (mean ankle thickness)” value is “greatly reduced the degree of arthritis” and the onset of arthritis entry is “delayed the onset of arthritis”.

Take `Cn1cc(C[C@@H](N)C(=O)O)c2ccccc21` [1-methyl-D-tryptophan]: in the assay with K/BxN mice (setting [3]), the “degree of arthritis (mean ankle thickness)” value is “greatly reduced the degree of arthritis” and the onset of arthritis result was “delayed the onset of arthritis”. Also, in the assay with K/BxN mice (setting [4]), the “degree of arthritis (mean ankle thickness)” value is reported as “reduced the degree of arthritis” and the onset of arthritis entry is listed as “delayed the onset of arthritis”. Further, the arthritis development result with K/BxN mice (FIG. 3 legend, 400 mg/kg p.o. b.i.d. from 21 days) was “inhibits arthritis development”.

With `Cn1cc(C[C@H](N)C(=O)O)c2ccccc21` (racemic) [1-MT, 1-methyl-tryptophan], the “levels of serum anti-GPI Ig” value in assay [1] is given as “reduced levels of serum anti-GPI Ig”. Further, the “numbers of anti-GPI antibody secreting cells” value in assay [2] is reported as “reduced numbers of anti-GPI antibody secreting cells”.

On to `Cn1cc(CC(N)C(=O)O)c2ccccc21` [1-methyl-D/L-tryptophan], for which, in the assay with K/BxN mice (setting [4]), the “degree of arthritis (mean ankle thickness)” value is listed as “reduced the degree of arthritis” and the onset of arthritis entry is recorded as “delayed the onset of arthritis”.

As for `CN(Cc1cnc2nc(N)nc(N)c2n1)c1ccc(C(=O)N[C@@H](CCC(=O)O)C(=O)O)cc1` [MTX, methotrexate], in the assay on K/BxN mice (setting [5]), the degree of arthritis entry was “reduced the degree of arthritis” and the onset of arthritis entry is recorded as “inhibited the onset of arthritis”. Also, in the assay with K/BxN mice (FIG. 4 legend, MTX 1, 10 or 25 mg/kg weekly p.o. from 3 weeks of age), the arthritis development entry is listed as “dose-dependent inhibition of arthritis development”.
